Reference: patent US4500526A, “Cephalosporin derivatives” (Bristol-Myers Company, priority 1983, dated 1985)
Values after ≈ are worked out from the molar mass of the structure shown.

Assays:
[1] = tested on: Cephalothinresistant E. coli (3 strains) and Kl. pneumoniae (3 strains); assay: MIC, two-fold serial agar dilution, group (G-)-Ib; type: cell-based; settings: Escherichia coli, read-out: Geometric Mean of MIC
Outline: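 MICs by two-fold serial agar dilution in Mueller-Hinton agar against cephalothin-resistant E. coli and Klebsiella pneumoniae strains. Compound weights were corrected for purity.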

[2] = tested on: Ps. aeruginosa (6 strains); assay: MIC, two-fold serial agar dilution, group (G-)-III; type: cell-based; settings: Pseudomonas aeruginosa; (G-)-III, 6 strains, Mueller-Hinton agar; read-out: Geometric Mean of MIC
Procedure: In the primary evaluation of the compounds of this invention, the Minimum Inhibitory Concentrations (MIC's) of the compounds were determined by the two-fold serial agar dilution method in Mueller-Hinton agar against 32 strains of test organisms in six groups. The sample weights of the test compounds were adjusted according to the purity of each compound, so as to give a more accurate measure of the MIC's.
(G-)III: Ps. aeruginosa (6 strains)

[3] = tested on: Penicillinresistant S. aureus (5 strains); assay: MIC, two-fold serial agar dilution, group (G+)-Ib; type: cell-based; settings: Staphylococcus aureus; (G+)-Ib, 5 strains, Mueller-Hinton agar; read-out: Geometric Mean of MIC
Outline: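 Two-fold serial agar dilution in Mueller-Hinton agar against penicillin-resistant S. aureus (5 strains). Test compound weights adjusted for purity.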

[4] = tested on: M. morganii (1 strain), Ent. cloacae (2 strains) and Ser. marcescens (2 strains); assay: MIC, two-fold serial agar dilution, group (G-)-II; type: cell-based; settings: (G-)-II, 5 strains, Mueller-Hinton agar; read-out: Geometric Mean of MIC
Outline: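 Two-fold serial agar dilution in Mueller-Hinton agar; test-compound sample weights adjusted for purity of each compound before MIC determination.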

[5] = Mouse blood levels after single intramuscular injection; type: in vivo, mice; settings: in vivo, im, 20 mg/kg
Outline: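 Mice received a single intramuscular dose of 20 mg/kg in 0.1M phosphate buffer, pH 7. Orbital sinus blood was sampled over time and bioassayed on Nutrient Agar (pH 6.6) with E. coli Ess-22-31; t1/2 and AUC were derived from the blood levels.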

[6] = tested on: H. influenzae (7) (ampicillin sensitive); assay: In vitro activity against fastidious bacteria, two-fold serial agar dilution; type: cell-based; settings: Haemophilus influenzae, GC agar, 7 strains, read-out: Geometric Mean of MIC
Procedure: The in vitro activity of some of the preferred compounds against 30 strains of fastidious bacteria was determined by the two-fold serial agar dilution method in Gonococcus agar (GC agar), and the results are shown in Table 3.

S. pyogenes A20201 = assay: Median protective dose in infected mice; type: in vivo; settings: Streptococcus pyogenes, im, immediately after intraperitoneal challenge, read-out: PD50
Procedure: The median protective dose (PD50) of some of the preferred compounds against various microorganisms was determined in mice by intramuscular administration of the test compound immediately after an intraperitoneal bacterial challenge.

CO/N=C(\C(=O)NC1C(=O)N2C(C(=O)[O-])=C(C[n+]3ccc4scnc4c3)CS[C@H]12)c1csc(N)n1 (stereo partly drawn) [Ia, 7-[(Z)-2-(2-Aminothiazol-4-yl)-2-methoxyiminoacetamido]-3-{(5-thiazolo[4,5-c]pyridinio)methyl}-3-cephem-4-carboxylate]
MIC [1]: 0.16 µg/mL (≈ 0.301 µM)
MIC [2]: 2.6 µg/mL (≈ 4.89 µM)
MIC [3]: 0.96 µg/mL (≈ 1.81 µM)
MIC [4]: 0.16 µg/mL (≈ 0.301 µM)
AUC [5]: 15000 ng·h/mL
concentration at 10 min [5]: 20000 ng/mL
concentration at 20 min [5]: 15000 ng/mL
concentration at 0.5 h [5]: 11000 ng/mL
concentration at 40 min [5]: 8600 ng/mL
concentration at 50 min [5]: 6900 ng/mL
concentration at 1 h [5]: 6500 ng/mL
concentration at 1.5 h [5]: 3100 ng/mL
concentration at 2 h [5]: 2100 ng/mL
half-life [5]: 35 min

CC(C)(O/N=C(\C(=O)NC1C(=O)N2C(C(=O)[O-])=C(C[n+]3ccc4scnc4c3)CS[C@H]12)c1csc(N)n1)C(=O)O (stereo partly drawn) [Id, 7-[(Z)-2-(2-Aminothiazol-4-yl)-2-(2-carboxyprop-2-oxyimino)-acetamido]-3-{(5-thiazolo[4,5-c]pyridinio)methyl}-3-cephem-4-carboxylate]
MIC [6]: 0.1 µg/mL (≈ 0.166 µM)
MIC [1]: 0.71 µg/mL (≈ 1.18 µM)
MIC [2]: 1.4 µg/mL (≈ 2.32 µM)
MIC [3]: 8.8 µg/mL (≈ 14.6 µM)
MIC [4]: 0.88 µg/mL (≈ 1.46 µM)
ED50 (S. pyogenes A20201): 0.23 mg/kg
AUC [5]: 9500 ng·h/mL
concentration at 10 min [5]: 16000 ng/mL
concentration at 20 min [5]: 14000 ng/mL
concentration at 0.5 h [5]: 11000 ng/mL
concentration at 40 min [5]: 6100 ng/mL
concentration at 50 min [5]: 3900 ng/mL
concentration at 1 h [5]: 2500 ng/mL
concentration at 1.5 h [5]: 720 ng/mL
concentration at 2 h [5]: < 200 ng/mL
half-life [5]: 16 min
